Data reported in PMC9067983, “Identification of highly selective type II kinase inhibitors with chiral peptidomimetic tails” (Journal of Enzyme Inhibition and Medicinal Chemistry, 2022).
Where a SMILES comes first, the peptide text is derived from it. [ ]: non-standard residue; d: D form. The star is where a group is joined. X1 = Cc1ccc(Nc2ncc3c(n2)N(C)C(=O)N(c2cc(C(=O)*)ccc2C)C3)cn1; Aib = CC(C)(N)C(=O)O

Assays:
Assay in all cases: kinase selectivity profiling
Type in all cases: biochemical
Details in all cases: 10µM ATP, read-out: % inhibition (relative to DMSO)
MST1/STK4 = target: T1, MST1/STK4 (Homo sapiens, UniProt Q13043)
T1 construct: purchased Reaction Biology Corp
Experimental: (§1) Full panel kinase profiling and kinase IC50 measurement were performed by using Reaction Biology Corp. (San Diego, USA).

CLK4 = target: T2, CLK4 (Homo sapiens, UniProt Q9HAZ1)
T2 construct: purchased Reaction Biology Corp
Experimental: as §1

FYN = target: T3, FYN (Homo sapiens, UniProt P06241)
T3 construct: purchased Reaction Biology Corp
Experimental: as §1

NEK7 = target: T4, NEK7 (Homo sapiens, UniProt Q8TDX7)
T4 construct: purchased Reaction Biology Corp
Experimental: as §1

PEAK1 = target: T5, PEAK1 (Homo sapiens, UniProt Q9H792)
T5 construct: purchased Reaction Biology Corp
Experimental: as §1

JNK2 = target: T6, JNK2 (Homo sapiens, UniProt P45984)
T6 construct: purchased Reaction Biology Corp
Experimental: as §1

NEK6 = target: T7, NEK6 (Homo sapiens, UniProt Q9HC98)
T7 construct: purchased Reaction Biology Corp
Experimental: as §1

PKCb1 = target: T8, PKCb1 (Homo sapiens, UniProt P05771)
T8 construct: purchased Reaction Biology Corp
Experimental: as §1

TAOK2/TAO1 = target: T9, TAOK2/TAO1 (Homo sapiens, UniProt Q9UL54)
T9 construct: purchased Reaction Biology Corp
Experimental: as §1

DYRK3 = target: T10, DYRK3 (Homo sapiens, UniProt O43781)
T10 construct: purchased Reaction Biology Corp
Experimental: as §1

TAOK1 = target: T11, TAOK1 (Homo sapiens, UniProt Q7L7X3)
T11 construct: purchased Reaction Biology Corp
Experimental: as §1

RIPK3 = target: T12, RIPK3 (Homo sapiens, UniProt Q9Y572)
T12 construct: purchased Reaction Biology Corp
Experimental: as §1

p38b/MAPK11 = target: T13, p38b/MAPK11 (Homo sapiens, UniProt Q15759)
T13 construct: purchased Reaction Biology Corp
Experimental: as §1

CDK14/cyclin Y (PFTK1) = target: T14, CDK14/cyclin Y (PFTK1) (Homo sapiens, UniProt O94921)
T14 construct: purchased Reaction Biology Corp
Experimental: as §1

ULK1 = target: T15, ULK1 (Homo sapiens, UniProt O75385)
T15 construct: purchased Reaction Biology Corp
Experimental: as §1

NEK1 = target: T16, NEK1 (Homo sapiens, UniProt Q96PY6)
T16 construct: purchased Reaction Biology Corp
Experimental: as §1

c-MET = target: T17, c-MET (Homo sapiens, UniProt P08581)
T17 construct: purchased Reaction Biology Corp
Experimental: as §1

MASTL = target: T18, MASTL (Homo sapiens, UniProt Q96GX5)
T18 construct: purchased Reaction Biology Corp
Experimental: as §1

ERK5/MAPK7 = target: T19, ERK5/MAPK7 (Homo sapiens, UniProt Q13164)
T19 construct: purchased Reaction Biology Corp
Experimental: as §1

STK21/CIT = target: T20, STK21/CIT (Homo sapiens, UniProt O14578)
T20 construct: purchased Reaction Biology Corp
Experimental: as §1

MLK1/MAP3K9 = target: T21, MLK1/MAP3K9 (Homo sapiens, UniProt P80192)
T21 construct: purchased Reaction Biology Corp
Experimental: as §1

LIMK1 = target: T22, LIMK1 (Homo sapiens, UniProt P53667)
T22 construct: purchased Reaction Biology Corp
Experimental: as §1

DCAMKL2 = target: T23, DCAMKL2 (Homo sapiens, UniProt Q8N568)
T23 construct: purchased Reaction Biology Corp
Experimental: as §1

FLT4/VEGFR3 = target: T24, FLT4/VEGFR3 (Homo sapiens, UniProt P35916)
T24 construct: purchased Reaction Biology Corp
Experimental: as §1

PKG1a = target: T25, PKG1a (Homo sapiens, UniProt Q13976)
T25 construct: purchased Reaction Biology Corp
Experimental: as §1

CDK18/cyclin Y (PCTK3) = target: T26, CDK18/cyclin Y (PCTK3) (Homo sapiens, UniProt Q07002)
T26 construct: purchased Reaction Biology Corp
Experimental: as §1

SIK2 = target: T27, SIK2 (Homo sapiens, UniProt Q9H0K1)
T27 construct: purchased Reaction Biology Corp
Experimental: as §1

CTK/MATK = target: T28, CTK/MATK (Homo sapiens, UniProt P42679)
T28 construct: purchased Reaction Biology Corp
Experimental: as §1

Aurora B = target: T29, Aurora B (Homo sapiens, UniProt Q96GD4)
T29 construct: purchased Reaction Biology Corp
Experimental: as §1

TRKA = target: T30, TRKA (Homo sapiens, UniProt P04629)
T30 construct: purchased Reaction Biology Corp
Experimental: as §1

HIPK4 = target: T31, HIPK4 (Homo sapiens, UniProt Q8NE63)
T31 construct: purchased Reaction Biology Corp
Experimental: as §1

PKCzeta = target: T32, PKCzeta (Homo sapiens, UniProt Q05513)
T32 construct: purchased Reaction Biology Corp
Experimental: as §1

PKCG = target: T33, PKCG (Homo sapiens, UniProt P05129)
T33 construct: purchased Reaction Biology Corp
Experimental: as §1

P38g = target: T34, P38g (Homo sapiens, UniProt P53778)
T34 construct: purchased Reaction Biology Corp
Experimental: as §1

EPHB4 = target: T35, EPHB4 (Homo sapiens, UniProt P54760)
T35 construct: purchased Reaction Biology Corp
Experimental: as §1

CDK1/cyclin A = target: T36, CDK1/cyclin A (Homo sapiens, UniProt P06493)
T36 construct: purchased Reaction Biology Corp
Experimental: as §1

PKN1/PRK1 = target: T37, PKN1/PRK1 (Homo sapiens, UniProt Q16512)
T37 construct: purchased Reaction Biology Corp
Experimental: as §1

KSR1 = target: T38, KSR1 (Homo sapiens, UniProt Q8IVT5)
T38 construct: purchased Reaction Biology Corp
Experimental: as §1

MEK3 = target: T39, MEK3 (Homo sapiens, UniProt P46734)
T39 construct: purchased Reaction Biology Corp
Experimental: as §1

AXL = target: T40, AXL (Homo sapiens, UniProt P30530)
T40 construct: purchased Reaction Biology Corp
Experimental: as §1

DMPK = target: T41, DMPK (Homo sapiens, UniProt Q09013)
T41 construct: purchased Reaction Biology Corp
Experimental: as §1

CK2a = target: T42, CK2a (Homo sapiens, UniProt P68400)
T42 construct: purchased Reaction Biology Corp
Experimental: as §1

CHK1 = target: T43, CHK1 (Homo sapiens, UniProt O14757)
T43 construct: purchased Reaction Biology Corp
Experimental: as §1

T5 sequence (Q9H792 whole entry): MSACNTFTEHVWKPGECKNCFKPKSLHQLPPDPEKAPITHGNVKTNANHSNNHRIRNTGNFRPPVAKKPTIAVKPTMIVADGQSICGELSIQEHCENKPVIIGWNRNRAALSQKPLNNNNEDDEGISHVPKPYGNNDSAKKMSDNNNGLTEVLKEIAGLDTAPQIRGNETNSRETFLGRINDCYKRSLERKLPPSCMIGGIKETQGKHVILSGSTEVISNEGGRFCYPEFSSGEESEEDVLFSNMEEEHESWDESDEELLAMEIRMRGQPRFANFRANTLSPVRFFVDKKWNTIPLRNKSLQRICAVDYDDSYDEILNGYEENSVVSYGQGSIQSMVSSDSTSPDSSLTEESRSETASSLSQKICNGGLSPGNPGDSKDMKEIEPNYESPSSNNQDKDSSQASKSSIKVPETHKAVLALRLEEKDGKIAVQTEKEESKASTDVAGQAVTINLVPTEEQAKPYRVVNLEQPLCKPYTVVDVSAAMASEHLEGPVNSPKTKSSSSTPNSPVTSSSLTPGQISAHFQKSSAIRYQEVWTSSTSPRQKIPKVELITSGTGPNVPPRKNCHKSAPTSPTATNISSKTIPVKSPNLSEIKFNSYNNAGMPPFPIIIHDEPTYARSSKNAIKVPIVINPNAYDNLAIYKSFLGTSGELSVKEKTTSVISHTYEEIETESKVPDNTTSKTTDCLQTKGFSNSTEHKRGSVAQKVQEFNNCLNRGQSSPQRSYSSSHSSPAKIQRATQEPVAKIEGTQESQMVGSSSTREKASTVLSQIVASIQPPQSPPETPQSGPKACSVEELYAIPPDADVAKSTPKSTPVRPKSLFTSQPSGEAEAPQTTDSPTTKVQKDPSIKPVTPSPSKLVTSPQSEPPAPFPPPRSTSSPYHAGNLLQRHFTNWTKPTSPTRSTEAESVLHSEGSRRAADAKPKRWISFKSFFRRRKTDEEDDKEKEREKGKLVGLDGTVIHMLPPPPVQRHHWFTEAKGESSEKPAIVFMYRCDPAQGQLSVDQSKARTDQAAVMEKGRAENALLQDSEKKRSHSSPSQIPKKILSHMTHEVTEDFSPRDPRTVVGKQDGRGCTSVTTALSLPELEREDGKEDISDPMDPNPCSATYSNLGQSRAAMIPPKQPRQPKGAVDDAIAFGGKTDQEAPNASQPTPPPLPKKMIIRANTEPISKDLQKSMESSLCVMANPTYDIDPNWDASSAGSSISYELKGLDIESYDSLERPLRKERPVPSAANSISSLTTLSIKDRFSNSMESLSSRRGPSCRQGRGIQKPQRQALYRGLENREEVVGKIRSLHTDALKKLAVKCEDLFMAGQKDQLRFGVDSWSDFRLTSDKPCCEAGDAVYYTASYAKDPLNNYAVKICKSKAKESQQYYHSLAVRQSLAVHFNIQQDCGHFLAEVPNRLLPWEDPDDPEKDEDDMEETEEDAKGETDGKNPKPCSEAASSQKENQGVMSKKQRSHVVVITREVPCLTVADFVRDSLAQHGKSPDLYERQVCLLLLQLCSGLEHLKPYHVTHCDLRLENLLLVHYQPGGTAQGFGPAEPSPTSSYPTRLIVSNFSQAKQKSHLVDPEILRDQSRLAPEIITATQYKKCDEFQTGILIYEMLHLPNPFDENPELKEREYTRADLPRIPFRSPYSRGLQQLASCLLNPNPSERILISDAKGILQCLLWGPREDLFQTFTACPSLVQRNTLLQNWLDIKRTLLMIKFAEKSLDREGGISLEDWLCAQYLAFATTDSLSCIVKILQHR
T42 sequence (P68400 whole entry): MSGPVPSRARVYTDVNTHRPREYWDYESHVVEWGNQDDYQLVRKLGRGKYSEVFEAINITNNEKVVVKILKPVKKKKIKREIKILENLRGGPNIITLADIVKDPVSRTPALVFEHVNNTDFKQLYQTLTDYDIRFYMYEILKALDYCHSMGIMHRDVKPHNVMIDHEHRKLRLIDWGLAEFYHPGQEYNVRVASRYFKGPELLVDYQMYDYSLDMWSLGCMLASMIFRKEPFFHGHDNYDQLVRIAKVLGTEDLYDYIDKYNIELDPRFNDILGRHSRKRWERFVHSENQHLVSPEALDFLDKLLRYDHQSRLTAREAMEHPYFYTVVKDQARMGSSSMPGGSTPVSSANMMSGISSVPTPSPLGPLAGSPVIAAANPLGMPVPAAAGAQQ
T13 sequence (Q15759 whole entry): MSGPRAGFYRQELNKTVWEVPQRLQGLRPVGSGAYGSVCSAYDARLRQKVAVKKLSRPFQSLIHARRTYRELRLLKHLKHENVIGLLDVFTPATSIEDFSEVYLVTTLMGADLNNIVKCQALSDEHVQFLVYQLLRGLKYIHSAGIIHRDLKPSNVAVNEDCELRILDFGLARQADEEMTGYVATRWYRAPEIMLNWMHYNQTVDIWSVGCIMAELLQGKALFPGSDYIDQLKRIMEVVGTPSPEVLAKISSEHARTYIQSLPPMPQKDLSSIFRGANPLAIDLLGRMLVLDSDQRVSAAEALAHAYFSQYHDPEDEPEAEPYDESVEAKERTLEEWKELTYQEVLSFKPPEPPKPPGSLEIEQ
T9 sequence (Q9UL54 whole entry): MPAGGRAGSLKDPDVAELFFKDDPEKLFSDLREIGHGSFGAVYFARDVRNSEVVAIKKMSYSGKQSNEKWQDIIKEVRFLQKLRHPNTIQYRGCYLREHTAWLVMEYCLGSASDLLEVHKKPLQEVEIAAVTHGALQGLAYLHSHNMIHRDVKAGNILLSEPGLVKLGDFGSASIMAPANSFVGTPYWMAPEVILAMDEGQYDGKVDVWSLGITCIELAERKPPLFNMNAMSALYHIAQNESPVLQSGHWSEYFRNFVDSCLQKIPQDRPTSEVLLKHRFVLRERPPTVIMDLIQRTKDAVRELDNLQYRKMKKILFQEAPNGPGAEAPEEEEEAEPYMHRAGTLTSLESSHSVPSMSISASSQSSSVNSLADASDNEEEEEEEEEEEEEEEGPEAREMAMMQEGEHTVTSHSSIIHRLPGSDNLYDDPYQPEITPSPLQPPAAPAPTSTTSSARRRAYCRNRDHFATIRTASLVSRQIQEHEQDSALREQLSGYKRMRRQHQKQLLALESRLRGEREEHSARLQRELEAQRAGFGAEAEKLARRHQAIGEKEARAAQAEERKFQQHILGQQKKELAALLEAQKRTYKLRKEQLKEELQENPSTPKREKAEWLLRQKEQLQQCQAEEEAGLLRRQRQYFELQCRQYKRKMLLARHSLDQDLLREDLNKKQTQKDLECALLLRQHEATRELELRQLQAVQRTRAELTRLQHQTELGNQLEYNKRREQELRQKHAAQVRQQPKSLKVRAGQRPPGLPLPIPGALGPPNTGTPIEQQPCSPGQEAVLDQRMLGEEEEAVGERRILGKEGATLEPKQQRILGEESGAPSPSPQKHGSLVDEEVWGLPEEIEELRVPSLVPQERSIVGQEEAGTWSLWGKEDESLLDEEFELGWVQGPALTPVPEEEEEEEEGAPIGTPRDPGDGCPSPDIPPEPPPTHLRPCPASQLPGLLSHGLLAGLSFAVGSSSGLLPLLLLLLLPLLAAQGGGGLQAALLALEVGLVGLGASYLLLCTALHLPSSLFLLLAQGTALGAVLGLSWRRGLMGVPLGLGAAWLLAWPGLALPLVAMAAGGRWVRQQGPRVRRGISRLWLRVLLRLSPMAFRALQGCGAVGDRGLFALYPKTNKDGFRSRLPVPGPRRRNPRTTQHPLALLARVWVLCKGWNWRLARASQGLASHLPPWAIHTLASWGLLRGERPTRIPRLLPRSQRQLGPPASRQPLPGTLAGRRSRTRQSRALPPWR
T21 sequence (P80192 whole entry): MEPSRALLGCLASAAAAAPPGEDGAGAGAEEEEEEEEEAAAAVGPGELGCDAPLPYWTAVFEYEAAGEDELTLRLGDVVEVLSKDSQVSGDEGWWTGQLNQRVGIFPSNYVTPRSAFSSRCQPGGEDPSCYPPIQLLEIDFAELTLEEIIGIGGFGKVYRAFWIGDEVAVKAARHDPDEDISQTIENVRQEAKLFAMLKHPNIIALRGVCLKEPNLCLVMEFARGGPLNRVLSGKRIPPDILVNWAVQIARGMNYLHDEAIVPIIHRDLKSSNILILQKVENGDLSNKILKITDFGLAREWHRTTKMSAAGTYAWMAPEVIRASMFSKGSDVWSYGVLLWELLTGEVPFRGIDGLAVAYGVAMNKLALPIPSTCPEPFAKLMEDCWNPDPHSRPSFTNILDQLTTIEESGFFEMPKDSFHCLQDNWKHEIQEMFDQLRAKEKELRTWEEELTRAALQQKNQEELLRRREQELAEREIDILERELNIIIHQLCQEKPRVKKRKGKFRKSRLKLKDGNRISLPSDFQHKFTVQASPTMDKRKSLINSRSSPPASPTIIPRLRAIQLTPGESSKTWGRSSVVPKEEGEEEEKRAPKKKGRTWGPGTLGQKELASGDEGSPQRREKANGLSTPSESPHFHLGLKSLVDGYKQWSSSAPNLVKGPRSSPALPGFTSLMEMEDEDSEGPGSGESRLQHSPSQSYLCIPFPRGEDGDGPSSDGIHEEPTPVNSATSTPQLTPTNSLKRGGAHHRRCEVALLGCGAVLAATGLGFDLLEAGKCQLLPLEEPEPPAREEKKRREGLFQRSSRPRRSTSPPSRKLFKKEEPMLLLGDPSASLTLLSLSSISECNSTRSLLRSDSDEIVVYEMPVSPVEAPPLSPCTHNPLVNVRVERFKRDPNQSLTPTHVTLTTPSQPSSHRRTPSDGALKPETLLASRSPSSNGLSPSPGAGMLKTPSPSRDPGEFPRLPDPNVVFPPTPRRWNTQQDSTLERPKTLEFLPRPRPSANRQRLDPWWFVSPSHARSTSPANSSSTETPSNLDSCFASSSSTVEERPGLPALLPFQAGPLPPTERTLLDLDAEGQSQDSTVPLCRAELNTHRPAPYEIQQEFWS

`Cc1ccc(Nc2ncc3c(n2)N(C)C(=O)N(c2cc(C(=O)N[C@H](C(=O)N4CCC[C@H]4C(=O)NC(C)(C)C(=O)N[C@@H](CC(C)C)C(=O)N(C)C)C(C)C)ccc2C)C3)cn1` [7a, (S)-N-(1-(((S)-1-(dimethylamino)-4-methyl-1-oxopentan-2-yl)amino)-2-methyl-1-oxopropan-2-yl)-1-((4-methyl-3-(1-methyl-7-((6-methylpyridin-3-yl)amino)-2-oxo-1,4-dihydropyrimido[4,5-d]pyrimidin-3(2H)-yl)benzoyl)-L-valyl)pyrrolidine-2-carboxamide] (X1-VP[Aib]L-NMe2) gave an inhibition at 1 µM (MST1/STK4) of 5%, an inhibition at 1 µM (CLK4) of 0% and an inhibition at 1 µM (FYN) of 21%. For the same molecule, the inhibition at 1 µM (NEK7) was 2%, the inhibition at 1 µM (PEAK1) was 44% and the inhibition at 1 µM (JNK2) was 2%. It also gave an inhibition at 1 µM (NEK6) of 0%, an inhibition at 1 µM (PKCb1) of 4% and an inhibition at 1 µM (TAOK2/TAO1) of 4%. For the same molecule, the inhibition at 1 µM (DYRK3) was 23%, the inhibition at 1 µM (TAOK1) was 0% and the inhibition at 1 µM (RIPK3) was 0%. The inhibition at 1 µM (p38b/MAPK11) was 13%, the inhibition at 1 µM (CDK14/cyclin Y (PFTK1)) was 6% and the inhibition at 1 µM (ULK1) was 0%. The inhibition at 1 µM (NEK1) was 0%, the inhibition at 1 µM (c-MET) was 14% and the inhibition at 1 µM (MASTL) was 7%. For the same molecule, the inhibition at 1 µM (ERK5/MAPK7) was 5%, the inhibition at 1 µM (STK21/CIT) was 0% and the inhibition at 1 µM (MLK1/MAP3K9) was 33%. The inhibition at 1 µM (LIMK1) was 51%, the inhibition at 1 µM (DCAMKL2) was 0% and the inhibition at 1 µM (FLT4/VEGFR3) was 20%. It also gave an inhibition at 1 µM (PKG1a) of 0%, an inhibition at 1 µM (CDK18/cyclin Y (PCTK3)) of 4% and an inhibition at 1 µM (SIK2) of 2%. For the same molecule, the inhibition at 1 µM (CTK/MATK) was 10%, the inhibition at 1 µM (Aurora B) was 6% and the inhibition at 1 µM (TRKA) was 0%. For the same molecule, the inhibition at 1 µM (HIPK4) was 1%, the inhibition at 1 µM (PKCzeta) was 0% and the inhibition at 1 µM (PKCG) was 9%. For the same molecule, the inhibition at 1 µM (P38g) was 4%, the inhibition at 1 µM (EPHB4) was 16% and the inhibition at 1 µM (CDK1/cyclin A) was 0%. It also gave an inhibition at 1 µM (PKN1/PRK1) of 1%, an inhibition at 1 µM (KSR1) of 2% and an inhibition at 1 µM (MEK3) of 0%. It also gave an inhibition at 1 µM (AXL) of 0%, an inhibition at 1 µM (DMPK) of 0% and an inhibition at 1 µM (CK2a) of 5%. It also gave an inhibition at 1 µM (CHK1) of 0%.
